# Literature values in patent US4530920A, “Nonapeptide and decapeptide analogs of LHRH, useful as LHRH agonist” (Syntex (U.S.A.) Inc., priority 1983, dated 1985).
# Tested on: LHRH activity
# Settings: 6-position Gly replaced by a D-amino acid; literature
row,Substance,activity relative to LH-RH
1,[D Ala^6 ]-LHRH,increased activity relative to LH-RH
2,[D-Trp^6 ]LHRH,increased activity relative to LH-RH
3,[D-Leu^6 ]LHRH,increased activity relative to LH-RH
4,[D-Phe^6 ]LHRH,increased activity relative to LH-RH

# Same assay, conditions: relative to LHRH; from Rivier et al. 1975 and Vale et al. 1979
row,Substance,potency (times LHRH)
1,[D-Trp^6 ]LHRH,36
2,"[D-Arg^6, Pro^9 -NHEt]LHRH",16.7
3,[D-LYS^6]LHRH,3.8
4,[D-Arg^6 ]LHRH,3.9
5,"[D-Trp^6, Pro^9 -NHEt]LHRH",144
